These results are taken from patent publication US20240228500A1, “THERAPEUTIC CONJUGATES” (TOTUS MEDICINES INC., priority 2021, published 2024).

For the assay, the system named is NanoLuc fused to the biological target. In words: NanoBRET binding assay of ARCS in transfected HEK293 cells with washout. More on the design: species or system human. The note with it: HEK293 cells transiently transfected with NanoLuc fusion DNA, compound incubated overnight, cells washed 5x in PBS, tracer added. As for the experimental part:
Human embryonic kidney 293-H (HEK 293, Gibco 293-H, #11631017) cell lines were maintained in Dulbecco's Modified Eagle Medium, high glucose, pyruvate (DMEM, Gibco, #11995065) supplemented with 10% fetal bovine serum (FBS, Gibco, #10082147) and 1× penicillin-streptomycin (100× solution, Gibco, #15140148) at 37° C. and 5% CO2 in a water-saturated incubator. Cells were trypsinized using 0.05% or 0.25% Trypsin-EDTA solution (Trypsin-EDTA, phenol red, Gibco, #25200056 (0.25%) or #25300054). Opti-MEM media supplemented with 10% fetal bovine serum (Opti-MEM I reduced serum media, no phenol red, Gibco, #11058021) was used for culturing cells overnight for NanoBRET readout experiments.
HEK293 cells were then cultivated appropriately prior to assay. The medium from cell flask was removed via aspiration, washed 1× with PBS followed by aspiration, trypsinized, and cells were allowed to dissociate from the flask. Trypsin is neutralized using growth medium and cells were pelleted via centrifugation at 200×g for 5 minutes. The medium was aspirated and the cells were resuspended into a single cell suspension using Opti-MEM I supplemented with 10% FBS. The cell density was adjusted to 2×10^5/mL in Opti-MEM I supplemented with 10% FBS in a sterile, conical tube. The cells were transfected and aliquoted directly in a 96-well plate for the NanoBRET assay the next day, and therefore, the cells were cultured overnight in Opti-MEM. The cells were also transfected in bulk and dispensed into a 96-well plate to allow cells to adhere to the plate overnight, thereby enabling washout studies.
The lipid:DNA complexes were then prepared as follows: A 10 μg/mL solution of DNA was prepared in Opti-MEM without serum. This solution contains the following ratios of carrier DNA and DNA encoding NanoLuc fused to the biological target. Serial dilution steps may be warranted to accurately dilute the NanoLuc fusion DNA. Added, in order, were the following reagents to a sterile polystyrene test tube: 1 mL of Opti-MEM without phenol red; 9.0 μg/mL of carrier DNA; 1.0 μg/mL of NanoLuc fusion DNA (for some targets, the amount is less). The reagents were mixed thoroughly.
[…] was added into each mL of DNA mixture to form lipid:DNA complex. […] It was mixed by pipetting up and down 5-10 times and incubated at room temperature for 20 minutes to allow complexes to form. 1 part (e.g. 1 mL) of lipid:DNA complex was mixed with 20 parts (e.g. 20 mL) of HEK293 cells in suspension at 2×10^5/mL and mixed gently by pipetting up and down 5 times in a sterile, conical tube. Larger or smaller bulk transfections were scaled accordingly, using this ratio. 100 μL cells+lipid:DNA complex was dispensed into a sterile, tissue-culture treated 96-well plate (20,000 cells/well), and incubated at least 16 hours to allow expression. The cells were incubated in a 37° C.+5% CO2 incubator for >16 hrs. A serially diluted inhibitor (i.e. ARCS) or test compound was prepared at 100× final concentration in 100% DMSO. The serially diluted inhibitor stock was prepared in PCR plates. 1 μL per well of 100× serially diluted inhibitor/test compound was added to the cells in 96-well plates that have been transiently transfected overnight and mixed by tapping the plate by hand. The plate was incubated at 37° C.+5% CO2 incubator overnight. A 1× solution of substrate mix (500× stock) and appropriate concentration of tracer was prepared in Opti-Mem. The cells were washed by setting a plate washer to the 96 well plate 5× in PBS pH 7.4 by adding 200 μL PBS each time. The cells were then incubated at 37° C. for 2 hours. 100 μL of the 1× Substrate-Tracer solution was added and the 96 well plate was gently tapped to mix. The plate on plate reader is read every hour for the next 6 hours.
In the case of `C=C(C)C(=O)NCC(=O)N1CCN(Cc2cc3c(N4CCOCC4)nc(-c4cnc(NC(=O)OC)cc4C(F)(F)F)nn3c2)CC1` [Compound 1-201], the “Binding (Percent inhibition)” value was “++++ (++++ >80%)”.

`COC(=O)Nc1cc(C(F)(F)F)c(-c2nc(N3CCOCC3)c3cc(CN4CCN(C(=O)CNC(=O)/C=C/CN5CC6(COC6)C5)CC4)cn3n2)cn1` [Compound 1-213]: the “Binding (Percent inhibition)” value was “+ (+ <20%)”. As to `C=CC(=O)N1CCC[C@H]1C(=O)N1CCN(Cc2cc3c(N4CCOCC4)nc(-c4cnc(NC(=O)OC)cc4C(F)(F)F)nn3c2)CC1` [Compound 1-309], the “Binding (Percent inhibition)” value is listed as “++++ (++++ >80%)”.

Take `COC(=O)Nc1cc(C(F)(F)F)c(-c2nc(N3CCOCC3)c3cc(CN4CCN(C(=O)CNC(C)=O)CC4)cn3n2)cn1` [Compound 1-214]: the “Binding (Percent inhibition)” value is given as “++++ (++++ >80%)”.

For the molecule `C=CC(=O)N[C@H](C)C(=O)N1CCN(Cc2cc3c(N4CCOCC4)nc(-c4cnc(NC(=O)OC)cc4C(F)(F)F)nn3c2)CC1` [Compound 1-313], the “Binding (Percent inhibition)” value was “++++ (++++ >80%)”. The result for `C=CC(=O)Nc1cccc(C(=O)N2CCN(Cc3cc4c(N5CCOCC5)nc(-c5cnc(NC(=O)OC)cc5C(F)(F)F)nn4c3)CC2)c1` [Compound 1-306] reads “++ (++ 20-50%)”. Take `COC(=O)Nc1cc(C(F)(F)F)c(-c2nc(N3CCOCC3)c3cc(CN4CCN(C(=O)CNC(=O)/C=C/CN5CCCCC5)CC4)cn3n2)cn1` [Compound 1-217]: the “Binding (Percent inhibition)” value is recorded as “++ (++ 20-50%)”. Take `COC(=O)Nc1cc(C(F)(F)F)c(-c2nc(N3CCOCC3)c3cc(CN4CCN(C(=O)CNC(=O)/C=C/CN5CCN(C)CC5)CC4)cn3n2)cn1` [Compound 1-203]: the “Binding (Percent inhibition)” value was “++ (++ 20-50%)”. To `COC(=O)Nc1cc(C(F)(F)F)c(-c2nc(N3CCOCC3)c3cc(CN4CCN(C(=O)CNC(=O)/C=C/CN5CCOCC5)CC4)cn3n2)cn1` [Compound 1-202] belongs “++++ (++++ >80%)”; to `COC(=O)Nc1cc(C(F)(F)F)c(-c2nc(N3CCOCC3)c3cc(CN4CCN(C(=O)CNC(=O)/C=C/CN5CC(F)(F)C5)CC4)cn3n2)cn1` [Compound 1-204], “++++ (++++ >80%)”; to `C=C(F)C(=O)NCC(=O)N1CCN(Cc2cc3c(N4CCOCC4)nc(-c4cnc(NC(=O)OC)cc4C(F)(F)F)nn3c2)CC1` [Compound 1-212], “++++ (++++ >80%)”. On to `C=CC(=O)N[C@@H](C)C(=O)N1CCN(Cc2cc3c(N4CCOCC4)nc(-c4cnc(NC(=O)OC)cc4C(F)(F)F)nn3c2)CC1` [Compound 1-315], for which the “Binding (Percent inhibition)” value is on record as “++++ (++++ >80%)”. To `C=C(OC)C(=O)NCC(=O)N1CCN(Cc2cc3c(N4CCOCC4)nc(-c4cnc(NC(=O)OC)cc4C(F)(F)F)nn3c2)CC1` [Compound 1-314] belongs “++++ (++++ >80%)”; to `C=CC(=O)N1CCC[C@@H]1C(=O)N1CCN(Cc2cc3c(N4CCOCC4)nc(-c4cnc(NC(=O)OC)cc4C(F)(F)F)nn3c2)CC1` [Compound 1-308], “++++ (++++ >80%)”; to `C#CCCC(=O)Nc1ccc(-c2nc(N3CCOCC3)c3cc(CN4CCN(C(=O)CNC(=O)C=C)CC4)cn3n2)cc1` [Compound 1-215], “+ (+ <20%)”. To `C=CC(=O)N(C)c1cccc(C(=O)N2CCN(Cc3cc4c(N5CCOCC5)nc(-c5cnc(NC(=O)OC)cc5C(F)(F)F)nn4c3)CC2)c1` [Compound 1-312] belongs “++ (++ 20-50%)”.

As to `COC(=O)Nc1cc(C(F)(F)F)c(-c2nc(N3CCOCC3)c3cc(CN4CCN(C(=O)CNC(=O)/C=C/CF)CC4)cn3n2)cn1` [Compound 1-206], the “Binding (Percent inhibition)” value is recorded as “+ (+ <20%)”.

With `C=CC(=O)NCC(=O)N1CC2(CN(Cc3cc4c(N5CCOCC5)nc(-c5cnc(NC(=O)OC)cc5C(F)(F)F)nn4c3)C2)C1` [Compound 1-223], the “Binding (Percent inhibition)” value was “++ (++ 20-50%)”.

Regarding `C=CC(=O)N1CCC(C(=O)N2CCN(Cc3cc4c(N5CCOCC5)nc(-c5cnc(NC(=O)OC)cc5C(F)(F)F)nn4c3)CC2)CC1` [Compound 1-304], the “Binding (Percent inhibition)” value is reported as “++++ (++++ >80%)”.
